Results on two molecules are retold here after patent US20230027495A1, “METHODS OF TREATING CANCER WITH A COMBINATION OF AN ANTI-PD-1 ANTIBODY AND AN ANTI-TISSUE FACTOR ANTIBODY-DRUG CONJUGATE” (Genmab A/S, priority 2019, published 2023).

Data set [1] has as its system human peripheral blood mononuclear cells (PBMCs). As to the kind of experiment: Monocyte/macrophage activation in human PBMCs fed drug-killed MDA-MB-231 cells. Type of data set: cell-based. The text has this: FIGS. 7A and 7B is a series of graphs in which Tissue Factor positive MDA-MB-231 cells killed with various agents were fed to human peripheral blood mononuclear cells (PBMCs) and immune activation assessed by increased expression of activations markers on innate CD14+ monocyte/macrophages and induction of chemokine and cytokine production.
Immunogenic cell death, as mediated by MMAE, is regulated cell death that activates adaptive immune responses against antigens from dead and dying tumor cells, and allows for the generation of robust innate immune cell activation and subsequent cytotoxic T cell responses targeted towards specific tumor cell antigens. […] Furthermore, these monocyte/macrophages conditioned by ICD-killed cells promote activation of T cells, as evidenced by production of signature inflammatory cytokines associated with cytotoxic T cell responses.

The test system of data set [2] is Tissue Factor positive cell lines. As to the kind of experiment: Cell death and ATP/HMGB1 release from Tissue Factor positive cell lines. The settings on record: Tissue Factor positive cells. Type of data set: cell-based. An excerpt: Auristatin ADC payloads disrupt the microtubule networks resulting in altered ER localization and function, which ultimately results in ER stress.

In data set [3] the test system is human peripheral blood mononuclear cells (PBMCs). As to the kind of experiment: T cell activation in CSFE labeled human PBMCs fed drug-killed MDA-MB-231 cells, with or without pembrolizumab. Type of data set: cell-based. An excerpt:
Induction of the innate immune response following exposure to cancer cells undergoing ICD sets up secondary T cell activation, which can be enhanced by concomitant pembrolizumab treatment.

For data set [4], the system named is HeLa cells. As to the kind of experiment: Imaging of RFP-tubulin microtubule network and ER in HeLa cells in the presence of MMAE. The data set is classed as cell-based. The settings on record: 100 nM MMAE. The protocol: HeLa cells were transduced with a baculovirus encoding RFP-labeled Tubulin (CellLight Tubulin-RFP, ThermoFisher Scientific) and an ER-binding dye (ER-ID Green, Enzo Life Sciences). Cells were treated with 100 nM MMAE and imaged over time in the present of MMAE. Within 2 hours, fragmentation and disassembly of the microtubule network became evident, concurrent with the breakdown of the perinuclear organized ER lattice (FIGS. 2A and 2B). The condensed and mislocalized ER skeleton indicated severe ER stress within 8 hours.

For data set [5], the system named is murine tumor cells that stably express human TF. As to the kind of experiment: Immunization of Balb/c mice with drug-killed human TF positive murine tumor cells, then tumor challenge (syngeneic model). Type of data set: in vivo. The settings on record: mice immunized with drug-killed human TF positive tumor cells. The protocol: Mouse tumor cells are transfected with plasmid constructs encoding human tissue factor (TF) and sgRNA-guided Cas9 nuclease (sgRNA/Cas9) to generate a murine cell line that expresses the human TF. Fluorescence activated cell sorting (FACS) yields a clonal population of murine tumor cells that stably express human TF, these cells are then treated with 1 μg to 5 μg per ml of tisotumab vedotin or 100 nM of MMAE for 4 days. In order to prepare dying cells for immunization, treated murine tumor cells are overlaid atop Histopaque, and centrifuged at 2000 g for 30 minutes. Dead and dying cells are pelleted underneath the Histopaque layer, and viability assessed by trypan blue exclusion. A sample with approximately <20% live cells as measured by trypan blue exclusion is obtained. Flash-frozen tumor cells are prepared by submerging the cells in liquid nitrogen for 10 seconds, followed by immersion in 37° C. water until completely thawed. The liquid nitrogen freeze-thaw process is repeated 5 times. Dead and dying human TF positive tumor cells are resuspended in phosphate buffered saline (PBS) and 2×10^6 cells are injected into the peritoneum of immune-competent Balb/c mice. Seven days later, mice receive a second immunization with dead and dying cells prepared in the same manner.
Fourteen days after initial immunization with the dead and dying human TF positive tumor cells, mice are subcutaneously implanted with 5×10^6 wild-type tumor cells and monitored for tumor growth. […] As these effects occur in the absence of any administered therapeutic agent, the administration of cells killed by tisotumab vedotin or MMAE is sufficient to generate long-lasting protective immune memory against subsequent tumor cell challenge. Protective immune memory is amplified by treating these mice with tisotumab vedotin in combination with an antibody that binds to murine PD-1.

The test system of data set [6] is HPAFII (pancreatic carcinoma) and MDA-MB-231 (breast carcinoma) cells. As to the kind of experiment: Western blot of ER stress pathways in HPAFII and MDA-MB-231 cells. The data set is classed as cell-based. Here is the method: Induction of cell death and release of ICD danger signals occurs concomitant with initiation of an ER stress response. Two Tissue Factor positive cell lines, HPAFII (pancreatic carcinoma) and MDA-MB-231 (breast cell carcinoma) were exposed to tisotumab vedotin ADC, an Isotype-MMAE ADC (H00-MMAE, IgG1 MMAE), or free MMAE for 18 hours and induction of ER stress monitored by western blot analysis. Phosphorylation of inositol-requiring transmembrane kinase/endonuclease 1 (IRE1) was detected after treatment with tisotumab vedotin ADC or MMAE free drug (FIG. 6). […] The ability for auristatins to prime the immune system to recognize tumor antigens opens the door for a myriad of combinatorial therapeutic options.

Data set [7] deals with HeLa cells. As to the kind of experiment: Western blot of ER stress (IRE1 and JNK phosphorylation) in MMAE-treated HeLa cells. The data set is classed as cell-based. The settings on record: 100 nM MMAE, 16 hours. The protocol:
HeLa cells, a cervical cancer cell line, were cultured in Minimum Essential Medium (MEM) with 10% FBS, 10 mM HEPES, 1 mM sodium pyruvate, 2 mM L-glutamine, penicillin (100U/ml), and streptomycin (100 μg/ml). HeLa cells were treated with 100 nM MMAE for 16 hours and harvested in radioimmunoprecipitation assay buffer (RIPA) buffer for western blot analysis. Treatment with MMAE led to phosphorylation of the serine threonine kinase IRE1, indicating activation of ER stress. Severe ER stress is a prerequisite to the exposure of pro-phagocytic signals on the surface of tumor cells, and can be indicated by activation of JNK signaling by phosphorylated IRE1.

In data set [8] the test system is HeLa cells. As to the kind of experiment: ATP and HMGB1 secretion from MMAE-treated HeLa cells. The data set is classed as cell-based. The settings on record: 100 nM MMAE, over 24 hours, vs untreated cells. The text has this:
Induction of ICD is also characterized by the secretion of ATP and HMGB1. Extracellular ATP serves as a strong chemotactic signal, promoting immune cell migration to the tumor site. Upon arrival, extracellular HMGB1 signals through various pro-inflammatory receptors (TLR2, TLR4, RAGE) to activate antigen-presenting cells, thereby promoting immune activity within the tumor.

The next data set has as its system cervical cancer. The settings on record: cited from earlier work.
The conditions of data set [9]: managed with interruptions of pembrolizumab, corticosteroids and/or other supportive care; cited from earlier work.
The test system of a further data set is MDA-MB-231 xenograft. As to the kind of experiment: MDA-MB-231 xenograft model in humanized NSG mice. As to conditions: pembrolizumab alone, first dose 10 mg/kg, then 5 mg/kg every five days, IP. Type of data set: in vivo. The protocol: The in vivo anti-tumor efficacy of tisotumab vedotin in combination with an anti-PD-1 monoclonal antibody was evaluated in NOD.Cg-PrkdC^scid Il2rg^tm1Wj1/SzJ (NSG) immunodeficient mice (The Jackson Laboratory, Stock No. 005557), humanized by engraftment with human CD34^+ hematopoietic stem cells (Jackson Laboratories, Sacramento). Mice were subcutaneously inoculated with 5×10^6 MDA-MB-231 cells (breast adenocarcinoma; American Tissue Culture Collection (ATCC), cat. no. HTB-26), in 100 μL phosphate-buffered saline (PBS). Before inoculation, cells were cultured in DMEM with high glucose and HEPES without L-glutamine (Lonza, cat. no. BE12-709F), 10% (v/v) donor bovine serum with iron New Zealand Origin (Thermo Fisher Scientific, DBSI, cat. no. 10371-029), 2 mM L-glutamine (Lonza, cat. no. BE17-605E), 1 mM Na-pyruvate (Lonza, cat. no. BE13-115E), MEM non-essential amino acids (Life Technologies, cat. no. 11140) and 1% (v/v) penicillin/streptomycin (Lonza, cat. no. DE17-603E), in CellSTACK culture chambers (Corning, cat. no. 3313).
Tumor size was determined by caliper measurement at least two times a week and tumor volume was calculated as 0.52×length×width^2. When tumors reached the size of 100 mm^3 mice were randomized in 7 groups (8 mice per treatment group) based on mouse cohort and tumor size (Table 1). Mice were treated with tisotumab vedotin alone (1 mg/kg or 0.5 mg/kg), intravenously, weekly for a maximum of five treatments, or in combination with an anti-PD-1 antibody (i.e., pembrolizumab, KEYTRUDA®, 50 mg concentrate, Merck & Co., Inc., Kenilworth, N.J. USA) or with anti-PD-1 antibody alone. The first dose of the anti-PD-1 antibody (i.e., pembrolizumab) was 10 mg/kg, followed by 5 mg/kg every five days for a maximum of six treatments. Mice in control groups were administered 1 mg/kg of IgG1 isotype control antibody or IgG1 isotype control antibody conjugated to MMAE intravenously, weekly for a maximum of five treatments (Table 1). The IgG1 isotype control antibody is the b12 antibody which is known to bind to HIV-1 gp120. […]

The mark [10] stands for this setting: PBMCs fed drug-exposed MDA-MB-231 cells, 48 hours.
Setting [11] is: HPAFII and MDA-MB-231 cells, 18 hours.

“Also recorded” adds a separate entry of the source. Non-standard residues stand in square brackets, D forms with d. Residues, ends and D or L forms follow the SMILES beside them. *: point of attachment. Dolaproine = CO[C@@H]([C@@H]1CCCN1)[C@@H](C)C(=O)O; Dil = CC[C@H](C)[C@H](NC)[C@@H](CC(=O)O)OC; X1 = C[C@@H](N*)[C@@H](O)c1ccccc1; NMeV = CN[C@H](C(=O)O)C(C)C

Consider `CC[C@H](C)[C@@H]([C@@H](CC(=O)N1CCC[C@H]1[C@H](OC)[C@@H](C)C(=O)N[C@H](C)[C@@H](O)c1ccccc1)OC)N(C)C(=O)[C@@H](NC(=O)[C@@H](NC)C(C)C)C(C)C` [MMAE, Monomethyl auristatin E, reference compound] (H-[NMeV]V[Dil][Dolaproine]-X1), for which, in [1] (CD14+ monocyte/macrophages, flow cytometry, PBMCs fed killed MDA-MB-231 cells, compared to IgG1-MMAE ADC or tisotumab alone), the “monocyte/macrophage activation by CD86 expression” value was “drove monocyte/macrophage activations”. Besides, the “release of innate chemokines” value in data set [1] (PBMCs fed killed MDA-MB-231 cells, compared to IgG1-MMAE ADC or tisotumab alone) is listed as “induced release of innate chemokines including MIP10”. The “chemotactic and inflammatory mediators from monocyte/macrophages” value in data set [1] (after uptake of killed Tissue Factor positive cells) was “elicit strong chemotactic and inflammatory mediators”. Moreover, in data set [2], the ATP secretion/release entry is “drove robust A) ATP secretion; also recorded: specific to tisotumab vedotin ADC and MMAE treatment”; the HMGB1 release result was “HMGB1 release; also recorded: specific to tisotumab vedotin ADC and MMAE treatment”. Besides, in data set [3] (setting [10]), the “T cell proliferation (CSFE dilution)” value is listed as “drove T cell proliferation”, the “production of IFNγ” value was “increased; also recorded: production of T cell specific cytokines” and the “production of IL12p70” value was “increased; also recorded: production of T cell specific cytokines”. Moreover, in the data set on HeLa cells [4], the “microtubule network and ER localization” value is “led to disassembly of the microtubule network and subsequent ER mislocalization”; the “time to fragmentation and disassembly of the microtubule network and breakdown of the ER lattice” value is not above 2 h; the “time to severe ER stress (condensed and mislocalized ER skeleton)” value was not above 8 h. Further, in [5], the “survival after challenge with wild-type tumor cells” value was “increased survival” and the “tumor growth after challenge with wild-type tumor cells” value was “delayed tumor growth”. Besides, in [6] (setting [11]), the “activation of JNK (phosphorylation)” value is on record as “increased phosphorylation”, the “activation of PERK pathway (ATF4 cleavage)” value was “upregulation of ATF4 cleavage” and the “phosphorylation of IRE1” value is recorded as “detected”. The “activation of ER stress pathways (phosphorylation of IRE and JNK, cleavage of ATF4)” value in data set [6] (HPAFII or MDA-MB-231 cells, 16 hours) is on record as “trigger multiple ER stress pathways”. In the data set with HeLa cells [7], the “phosphorylation of IRE1 and JNK (ER stress)” value was “led to phosphorylation of both IRE1 and JNK; also recorded: elicited severe ER stress by phosphorylation of IRE1 and JNK”. For the same molecule, in the data set with HeLa cells [8], the “secretion of ATP” value is listed as “increased secretion” and the “secretion of HMGB1” value is recorded as “increased secretion”.

In the case of “pembrolizumab: anti-PD-1 monoclonal antibody, checkpoint inhibitor, also known as KEYTRUDA® [reference compound]”, the “T cell proliferation driven by tisotumab vedotin or MMAE killed cells, effect of added pembrolizumab” value in data set [3] (2 mg/ml of pembrolizumab, 48 hours) is “enhanced”. Besides, in data set [3] (IL12p70 and IFNγ, 48 hours), the “cytokine production after tisotumab vedotin or MMAE killed cells, effect of concomitant pembrolizumab” value was “increased”. Also, the “secondary T cell responses after tisotumab vedotin induced ICD, effect of pembrolizumab” value in data set [3] (concomitant pembrolizumab treatment) is recorded as “can be amplified”. Also, the objective response rate in the data set with cervical cancer (200 mg Q3W, 82 patients with previously treated, advanced cervical cancer) is 12%. The “objective response rate (ORR)” value in the data set with cervical cancer (2L+ PD-L1-positive recurrent or metastatic cervical cancer, 42% previously treated with bevacizumab) is reported as 14%. Besides, in [9], the “reversibility of immune-related AEs (irAEs)” value is “most irAEs were reversible”. Further, the “tumor burden as assessed by tumor volume” value in the data set on MDA-MB-231 xenograft is recorded as “hardly reduced tumor burden”.
